The target of assay [1] is T1, O-GlcNAcase (Homo sapiens, UniProt O60502).
T1 construct: host or cells: wild-type fibroblasts AG07059 and SH-SY5Y cells
T1 sequence (O60502 1-916): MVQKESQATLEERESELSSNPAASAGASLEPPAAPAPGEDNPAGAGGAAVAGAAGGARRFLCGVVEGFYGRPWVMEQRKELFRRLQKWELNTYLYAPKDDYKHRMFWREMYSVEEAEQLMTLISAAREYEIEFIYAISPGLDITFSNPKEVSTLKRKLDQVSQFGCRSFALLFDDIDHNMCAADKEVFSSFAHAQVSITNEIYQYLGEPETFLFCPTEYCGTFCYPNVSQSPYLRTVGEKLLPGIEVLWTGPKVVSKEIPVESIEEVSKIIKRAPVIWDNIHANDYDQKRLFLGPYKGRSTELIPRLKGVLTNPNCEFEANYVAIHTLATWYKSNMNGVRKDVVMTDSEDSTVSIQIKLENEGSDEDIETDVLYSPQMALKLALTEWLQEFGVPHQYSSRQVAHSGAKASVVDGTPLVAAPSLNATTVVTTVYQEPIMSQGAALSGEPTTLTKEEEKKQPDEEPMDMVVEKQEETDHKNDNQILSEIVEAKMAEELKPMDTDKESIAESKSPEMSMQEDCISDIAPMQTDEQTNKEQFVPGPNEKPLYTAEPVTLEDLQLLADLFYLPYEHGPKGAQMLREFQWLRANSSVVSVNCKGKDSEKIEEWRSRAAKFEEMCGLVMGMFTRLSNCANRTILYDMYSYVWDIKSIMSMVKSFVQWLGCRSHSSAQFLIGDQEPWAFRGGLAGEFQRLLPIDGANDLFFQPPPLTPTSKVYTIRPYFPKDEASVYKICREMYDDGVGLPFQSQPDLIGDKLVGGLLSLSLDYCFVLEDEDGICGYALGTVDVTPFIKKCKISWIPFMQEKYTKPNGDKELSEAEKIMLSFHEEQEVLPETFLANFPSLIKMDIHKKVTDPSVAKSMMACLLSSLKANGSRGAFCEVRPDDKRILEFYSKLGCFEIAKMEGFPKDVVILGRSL
In words: Cellular O-GlcNAcase activity (protein O-GlcNAc Western blot) in fibroblasts and SH-SY5Y cells. The following applies: concentrations up to 100 μM. Format: cell-based. As to the method:
Effect of AdDNJ on cellular O-GlcNAcase activity was tested in both wild-type fibroblast (AG07059, Coriell) and SH-SY5Y cells. Fibroblasts were incubated with or without 10 μM AdDNJ or Thiamet G in complete media for 24 h at 37° C. in a humidified 8% CO2 incubator. For SH-SY5Y cells, multiple concentrations (0 μM to 100 μM) of AdDNJ and Thiamet G were used. Cell pellets were lysed in RIPA buffer and total protein-associated O-GlcNAc level was measured using Western blot. Briefly, 40 μg total protein was separated, transferred to PVDF and probed with an anti O-GlcNAc antibody (18B10.C7, Pierce). Chemiluminescence was imaged using an Alpha Innotech FluoroChem Q imager and quantified by densitometry using AlphaView SA software (Alpha Innotech). The blots were stripped and re-probed with an anti-calnexin antibody (ab22595, Abcam). For O-GlcNAc quantification, whole lane O-GlcNAc densitometry was background subtracted and normalized to the calnexin load control band.
(Immunoblotting shows a protein as a band on a membrane.)

The subject of assay [2] is Dutch APP^E693Q transgenic mice. In words: Novel object recognition (NOR). In kind it is in vivo. The settings on record: 3-month course, higher doses (30 or 100 mg/kg). As to the method:
(§1) The generation and characterization of Dutch APPE693Q mice transgenic mice is described in Gandy, S., et al. Days to criterion as an indicator of toxicity associated with human Alzheimer amyloid-beta oligomers. Annals of neurology 68, 220-230 (2010). 3-month-old male Dutch APP^E693Q mice transgenic mice were orally gavaged 5 days/week with either vehicle (water) (n=15) or 3, 10, 30 or 100 mg/kg AdDNJ for 3 months (n=13). All animal studies were approved and conducted in accordance with the Institutional Animal Care and Usage Committee. Mice were kept in a pathogen-free environment, on a 12-hour light/dark cycle and given ad libitum access to food and water. At 6 month of age treatment groups, and a 3-month-old untreated baseline group (n=15), were cognitively assessed in the NOR, EPM and FC tests. 48 hours following the final dose mice were perfused with ice-cold 1×PBS. The brain was removed and dissected into two hemispheres. One half was snap-frozen on dry ice and stored at −80° C. for biochemistry; the other half was post-fixed in 4% paraformaldehyde then sagittally sectioned on a vibratome into 30 μm sections and stored at 4° C. in storage buffer until histological analyses. […]
On day 1, the mouse was placed in the NOR arena (20 cm diameter) for 10 min to acclimatize. […] The duration spent exploring the objects was then measured using ANY-maze (Stoelting, Wood Dale, Ill.).

Assay [3] shares this test system. The experiment in a line: Contextual and cued fear conditioning. Format: in vivo. The settings on record: 3-month course, 3-100 mg/kg. As to the method:
as §1, with “hemispheres.” for “hemispheres. One half was snap-frozen on dry ice and stored at −80° C. for biochemistry; the other half was post-fixed in 4% paraformaldehyde then sagittally sectioned on a vibratome into 30 μm sections and stored at 4° C. in storage buffer until histological analyses.”
Contextual and cued fear conditioning was assessed using the ANY-Maze fear conditioning system (Stoelting Co., Wood Dale, Ill., USA) as previously described in Steele, J. W., et al. Early fear memory defects are associated with altered synaptic plasticity and molecular architecture in the TgCRND8 Alzheimer's disease mouse model. […]

The target of assay [4] is T2, α-galactosidase (α-Gal) (Homo sapiens, UniProt P06280).
T2 construct: wild-type fibroblast (CRL2076) pellets (˜2.5e6 cells/pellet) were lysed; host or cells: wild-type fibroblasts CRL2076, lysate
T2 sequence (P06280 32-429): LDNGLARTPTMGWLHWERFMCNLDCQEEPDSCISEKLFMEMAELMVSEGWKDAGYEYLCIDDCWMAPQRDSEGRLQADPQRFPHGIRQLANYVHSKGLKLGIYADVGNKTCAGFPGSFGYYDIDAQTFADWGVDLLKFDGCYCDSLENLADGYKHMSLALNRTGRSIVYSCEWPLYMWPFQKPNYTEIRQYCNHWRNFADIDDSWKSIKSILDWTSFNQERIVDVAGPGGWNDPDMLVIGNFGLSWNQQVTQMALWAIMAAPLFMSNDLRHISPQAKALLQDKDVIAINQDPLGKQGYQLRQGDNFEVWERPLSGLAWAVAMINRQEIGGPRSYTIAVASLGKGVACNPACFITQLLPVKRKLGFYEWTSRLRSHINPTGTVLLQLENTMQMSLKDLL
In words: Selectivity: alpha-galactosidase activity in fibroblast lysate. In kind it is biochemical. The settings on record: 10 μM, the highest concentration tested. From the text:
Enzymatic activity measurements were done in duplicate.

Consider `CC(=O)NC1CNC(CO)[C@@H](O)C1O` (stereo partly shown) [AdDNJ, 2-acetamido-1,2-dideoxynojirimycin], for which, in assay [1], the “inhibition of O-GlcNAcase” value is “did not inhibit”. In addition, in assay [2], the “learning behavior in NOR test” value is on record as “protection from the typical aging-related learning behavior deficits”. Also, in assay [3], the “contextual or cued fear conditioning” value is “no effect”. The “inhibition of α-galactosidase (α-Gal)” value in assay [4] is “did not inhibit”.

The record behind these values is patent publication US9675627B2, “Dosing regimens for treating and/or preventing cerebral amyloidoses” (Amicus Therapeutics, Inc., priority 2014, dated 2017).
